Reference: patent US20230107216A1, “PANTETHEINE DERIVATIVES AND USES THEREOF” (Comet Therapeutics, Inc., priority 2018, published 2023)
Like-named read-outs stand apart in the source and are kept apart here.

Assays:
[1] = system: Bronchial epithelial cells (BE3C system); test: BioMAP BE3C system (IL-1β, TNFα, IFNγ); format: cell-based, human; conditions: procedure of Example 831
[2] = system: Venular Endothelial cells (HUVEC) (4H system); test: BioMAP 4H system (IL-4 and histamine); format: cell-based, human; conditions: procedure of Example 826; for % decrease in Eotaxin-3 / % decrease in MCP-1 / inhibition at 1 µM: 1 uM; for inhibition at 1 µM / inhibition at 10 µM: Homo sapiens, HUVEC, 24 h
[3] = system: Propionic Acidemia (PA) primary fibroblasts Tsi 6337; test: Mitochondrial respiration, XFe96 Extracellular Flux Analyzer (OCR/ECAR), PA fibroblasts Tsi 6337; format: cell-based; conditions: Homo sapiens, Fibroblast, read-out: Increase in Maximal Respiratory Capacity AUC
Description: The effect of the compounds of the present disclosure on mitochondrial respiration was measured with a XFe96 Extracellular Flux Analyzer (Seahorse Bioscience, Agilent Technologies) and Oxygen consumption Rate (OCR) and Extracellular acidification rate (ECAR) determined.
Cell culture and treatments. Primary adherent fibroblasts were cultured in minimum essential medium (MEM) (Gibco, 25030081) supplemented with 2 mM L-Glutamine (Gibco, 25030081), 15% fetal bovine serum (FBS) (Gibco, 26400044) and 1% penicillin/streptomycin (Gibco, 5140122) at 37° C. and 5% CO2. Cells were collected for either passaging or experiment at ˜70-80% confluence. Cells were obtained by trypsinization and seeded at 20000 cells/well in cell culture microplates (Seahorse Bioscience, 101085-004) and allowed to adhere for 16 hours in culture media.
By profiling different primary cells and/or optimizing their culture media or environmental components one can select cell lines and/or conditions that are appropriate for the biological or disease model. In the present example, 24 hours prior to OCR and ECAR profiling, media was changed to Dulbecco's Modified Eagle Medium (DMEM, Agilent Seahorse 103575-100) with the appropriate supplements for the different primary cells (10 mM glucose, 2 mM L-glutamine, 1 mM pyruvate, 10% FBS; 1 mM glucose, 2 mM L-glutamine, 1 mM pyruvate, 10% FBS; 10 mM glucose, 10% FBS; 5 mM glucose 10% FBS; 1 mM glucose 10% FBS). Cells used in this example were: Propionic Acidemia (PA) (GM00371, GM03590 Coriell Institute for Medical Research, Tsi 6337, Tsi 4626, Tsi 3618 Trans-Hit Bio), Methylmalonic Acidemia (MMA) (GM01673, Coriell Institute for Medical Research, Tsi 5224 Trans-Hit Bio), Branched chain ketoacid dehydrogenase kinase (BCKDK) (GM00612, GM00649 Coriell Institute for Medical Research), Subnormal activation of pyruvate dehydrogenase complex (PDH) (GM01503 Coriell Institute for Medical Research), Very long-chain acyl-CoA dehydrogenase (VLCAD) (GM17475), Leigh Syndrome (LS) (GM03672, GM13411 Coriell Institute for Medical Research), Pyruvate Carboxylase Deficiency (PC) (GM00444 Coriell Institute for Medical Research), Glutaric Acidemia-I (GA) (GM10653), Friedreich's Ataxia (FXN) (GM04078 Coriell Institute for Medical Research, Huntington's disease (HD) (GM21756 Coriell Institute for Medical Research), Ornithine Transcarbamylase Deficiency (OTC) (GM12756 Coriell Institute for Medical Research), Kearns-Sayre Syndrome (KSS) (GM06225 Coriell Institute for Medical Research).
One hour before the assay, the cells were washed with freshly prepared unbuffered serum free-Seahorse XF Assay medium (Seahorse Bioscience, North America, USA, 103575-100) with the same supplements as for the previous 24 hour incubation.
After baseline measurements of OCR, cells were challenged with compounds of the present disclosure at different concentrations (10 to 50 μM) or vehicle (DMSO, 0.1%) and a post-compound baseline was recorded. OCR was measured after sequentially adding to each well 1 μg/ml oligomycin (inhibitor of ATP synthase Sigma-Aldrich, 753531), then maximal OCR was determined with carbonyl cyanide 4-(trifluoromethoxy) phenylhydrazone (FCCP, Sigma-Aldrich, C2920), (uncoupler of oxidative phosphorylation) and 0.5 μM of rotenone (Sigma-Aldrich, R8875) plus antimycin A (Sigma-Aldrich, A8674) (inhibitors of mitochondrial complex I and III) for determination of rotenone-antimycin insensitive respiration together with Hoechst for nuclear staining in situ when normalized to cell counts. After the analysis and nuclear staining, the XFp microplate was transferred to the Cytation 5, and the nuclear images were captured, the individual nuclei were identified and counted by BioTek Gen5 software. Data were expressed as pmol of O2 per minute and normalized by nuclear staining and baselined to pre-compound addition.
Assay conditions were as stated below.
Assay specifics on assay conditions are indicated below when readouts were normalized to cell counts. […]

[4] = Homo sapiens, Epithelial cell, 24 h, 10 uM, read-out: % decrease in MMP-1
[5] = read-out: % decrease in VEGFRII
[6] = 10 uM, read-out: % decrease in E-Selectin
[7] = PA Tsi 6337, assay condition A (10 mM glucose, 2 mM L-glutamine, 1 mM pyruvate, 10% FBS)
[8] = PA Tsi 6337, assay condition D (1 mM glucose, 10% FBS)
[9] = read-out: % decrease in E-Selectin
[10] = 10 uM, read-out: % decrease in VEGFRII

In the case of `COC(=O)CCC(=O)SCCNC(=O)CCNC(=O)[C@H](OC(=O)CNC(C)=O)C(C)(C)CO` [Compound 1298, methyl 4-[(2-[3-[(2R)-2-[(2-acetamidoacetyl)oxy]-4-hydroxy-3,3-dimethylbutanamido]propanamido]ethyl)sulfanyl]-4-oxobutanoate], the inhibition at 10 µM [1, 4] is reported as ≥ 10%, the “% decrease in Eotaxin-3” value [2] is reported as ≥10% and the “% decrease in MCP-1” value [2] is reported as ≥10%. The inhibition at 1 µM [2, 5] was ≥ 10%.

In the case of `C[C@@H](O)CC(=O)CC(=O)SCCNC(=O)CCNC(=O)[C@H](O)C(C)(C)CO` [Compound 42, (2R)-2,4-dihydroxy-N-[2-[(2-[[(5R)-5-hydroxy-3-oxohexanoyl]sulfanyl]ethyl)carbamoyl]ethyl]-3,3-dimethylbutanamide], the “% decrease in Keratin 8/18” value ([1]; 10 uM) is reported as ≥1.0%, the “% decrease in MMP-9” value ([1]; 10 uM) is reported as ≥10% and the “% decrease in tPA” value ([1]; 10 uM) is reported as ≥10%. For the same compound, the “% decrease in Eotaxin-3” value [2] was ≥10%, the “% increase in MCP-1” value ([2]; 10 uM) was ≥10% and the “% increase in VEGRII” value ([2]; 10 uM) was ≥10%. The inhibition at 10 µM [2, 6] was ≥ 10%.

`CC(=O)SCCNC(=O)CCNC(=O)[C@H](O)C(C)(C)COC(=O)CCC(=O)O` [Compound 1242, (R)-12-hydroxy-13,13-dimethyl-2,7,11,16-tetraoxo-15-oxa-3-thia-6,10-diazanonadecan-19-oic acid] was tested, and the activation at 10 µM [3, 7] was ≥ 10%.

In the case of `COC(=O)CCC(=O)SCCNC(=O)CCNC(=O)[C@H](OC(=O)CN)C(C)(C)CO` [Compound 1294, methyl 4-[(2-[3-[(2R)-2-[(2-aminoacetyl)oxy]-4-hydroxy-3,3-dimethylbutanamido]propanamido]ethyl)sulfanyl]-4-oxobutanoate], the inhibition at 1 µM ([1]; Homo sapiens, Epithelial cell, 24 h, 1 uM, read-out: % decrease in MMP-1) is reported as ≥ 10% and the “% decrease in MCP-1” value [2] is reported as ≥10%.

For `COC(=O)CC[C@H](N)C(=O)SCCNC(=O)CCNC(=O)[C@H](O)C(C)(C)CO` [Compound 411], the activation at 10 µM [3, 7] was ≥ 10% and the activation at 10 µM [3, 8] was ≥ 10%.

For `CC(=O)SCCNC(=O)CCNC(=O)[C@H](O)C(C)(C)COC(=O)[C@@H](N)Cc1ccc(O)c(O)c1` [Compound 498, (3R)-3-[(2-[[2-(acetylsulfanyl)ethyl]carbamoyl]ethyl)carbamoyl]-3-hydroxy-2,2-dimethylpropyl (2S)-2-amino-3-(3,4-dihydroxyphenyl)propanoate], the “% increase in MMP-1” value ([1]; 1 uM) was ≥10%, the “% decrease in tPA” value ([1]; 10 uM) was ≥10% and the inhibition at 1 µM [2, 9] was ≥ 10%. For the same compound, the inhibition at 10 µM [2, 10] was ≥ 10%.

In the case of `COC(=O)C(C)C(=O)SCCNC(=O)CCNC(=O)[C@H](O)C(C)(C)CO` (some centres unmarked) [Compound 405], the activation at 10 µM [3, 8] is reported as ≥ 10%.

`CC(C)(CO)[C@@H](O)C(=O)NCCC(=O)NCCSC(=O)C1CCC(=O)N1` (stereo partly drawn) [Compound 1227, S-2-{3-[(R)-2,4-dihydroxy-3,3-dimethylbutyrylamino]propionylamino}ethyl 5-oxo-2-pyrrolidinecarbothioate] was tested, and the activation at 10 µM [3, 7] was ≥ 10%.

`CC(C)(CO)[C@@H](O)C(=O)NCCC(=O)NCCSC(=O)[C@@H](N)Cc1ccc(O)c(O)c1` [Compound 371, (2R)—N-[2-[(2-[[(2S)-2-amino-3-(3,4-dihydroxyphenyl)propanoyl]sulfanyl]ethyl)carbamoyl]ethyl]-2,4-dihydroxy-3,3-dimethylbutanamide] was tested, and the inhibition at 10 µM [2, 10] was ≥ 10%.

`CC(C)(COC(=O)CCC(=O)O)[C@@H](O)C(=O)NCCC(=O)NCCS` [Compound 1310, (R)-4-(3-hydroxy-4-((3-((2-mercaptoethyl)amino)-3-oxopropyl)amino)-2,2-dimethyl-4-oxobutoxy)-4-oxobutanoic acid] was tested, and the activation at 10 µM [3, 7] was ≥ 10%.

In the case of `CC1(CC(=O)SCCNC(=O)CCNC(=O)[C@H](O)C(C)(C)CO)OCCO1` [Compound 1252, (R)—S-(2-(3-(2,4-dihydroxy-3,3-dimethylbutanamido)propanamido)ethyl)-2-(2-methyl-1,3-dioxolan-2-yl)ethanethioate], the activation at 10 µM [3, 7] is reported as ≥ 10%.

For `CC(=O)OCC(C)(C)[C@@H](OC(C)=O)C(=O)NCCC(=O)NCCSC(C)=O` [Compound 1264, (1R)-3-(acetyloxy)-1-[(2-[[2-(acetylsulfanyl)ethyl]carbamoyl]ethyl)carbamoyl]-2,2-dimethylpropyl acetate], the “% decrease in tPA” value ([1]; 10 uM) was ≥10%, the inhibition at 10 µM [1, 4] was ≥ 10% and the inhibition at 10 µM [2, 10] was ≥ 10%.

In the case of `COC(=O)/C=C/C(=O)SCCNC(=O)CCNC(=O)[C@H](O)C(C)(C)COP(=O)(O)O` [Compound 73, methyl (R,E)-4-((2-(3-(2-hydroxy-3,3-dimethyl-4-(phosphonooxy)butanamido)propanamido)ethyl)thio)-4-oxobut-2-enoate], the activation at 10 µM [3, 8] is reported as ≥ 10%.

With `COC(=O)CC(SCCNC(=O)CCNC(=O)[C@H](O)C(C)(C)COC(C)=O)C(=O)OC` (stereo partly drawn) [Compound 149, 1,4-dimethyl 2-[(2-[3-[(2R)-4-(acetyloxy)-2-hydroxy-3,3-dimethylbutanamido]propanamido]ethyl)sulfanyl]butanedioate] the “% decrease in tPA” value ([1]; 10 uM) was ≥10%, the “% increase in VEGRII” value ([2]; 10 uM) was ≥10% and the inhibition at 10 µM [2, 6] was ≥ 10%.

With `CC(C)(CO)[C@@H](OC(=O)CCC(=O)O)C(=O)NCCC(=O)NCCS` [Compound 1311, (R)-4-((4-hydroxy-1-((3-((2-mercaptoethyl)amino)-3-oxopropyl)amino)-3,3-dimethyl-1-oxobutan-2-yl)oxy)-4-oxobutanoic acid] the activation at 10 µM [3, 7] was ≥ 10%.

For `CC(=O)SCCNC(=O)CCNC(=O)[C@H](O)C(C)(C)COC(=O)[C@H](C)N` [Compound 502, (3R)-3-[(2-[[2-(acetylsulfanyl)ethyl]carbamoyl]ethyl)carbamoyl]-3-hydroxy-2,2-dimethylpropyl (2S)-2-aminopropanoate], the “% decrease in IL-1α” value ([1]; 1 uM) was ≥10% and the inhibition at 10 µM [2, 10] was ≥ 10%.

`CCCCCCC(=O)SCCNC(=O)CCNC(=O)[C@H](O)C(C)(C)CO` [Compound 372, (2R)—N-(2-[[2-(heptanoylsulfanyl)ethyl]carbamoyl]ethyl)-2,4-dihydroxy-3,3-dimethylbutanamide] was tested, and the inhibition at 10 µM [1, 4] was ≥ 10% and the inhibition at 1 µM [2, 9] was ≥ 10%.

With `COC(=O)CCC(=O)SCCNC(=O)CCNC(=O)[C@H](O)C(C)(C)COC(C)=O` [Compound 138] the “% increase in MMP-9” value ([1]; 1 uM) was ≥10% and the inhibition at 1 µM [2, 5] was ≥ 20%.

With `CCC(C)C(=O)CC(=O)SCCNC(=O)CCNC(=O)[C@H](O)C(C)(C)CO` (stereo partly drawn) [Compound 1240, S-(2-(3-((R)-2,4-dihydroxy-3,3-dimethylbutanamido)propanamido)ethyl) 4-methyl-3-oxohexanethioate] the activation at 10 µM [3, 8] was ≥ 10%.

`C[C@H](CC(=O)SCCNC(=O)CCNC(=O)[C@H](O)C(C)(C)CO)OC(=O)CCC(=O)O` [Compound 1243, 4-{[(2R)-4-[(2-{3-[(2R)-2,4-dihydroxy-3,3-dimethylbutanamido]propanamido}ethyl)sulfanyl]-4-oxobutan-2-yl]oxy}-4-oxobutanoic acid] was tested, and the activation at 10 µM [3, 7] was ≥ 10%.
